Counter-ions that a name gives are not always drawn. Like-named read-outs stand apart in the source and are kept apart here.
Assays:
[1] = system: Escherichia coli; test: Activity in vitro: minimum inhibitory concentration; assay type: cell-based
[2] = system: Proteus mirabilis; test: as above; assay type: cell-based
[3] = system: Proteus morganii; test: as above; assay type: cell-based; details: Morganella morganii
[4] = system: Proteus rettgeri; test: as above; assay type: cell-based; details: Providencia rettgeri
[5] = system: Proteus inconstans; test: as above; assay type: cell-based; details: Providencia alcalifaciens
[6] = system: Proteus vulgaris; test: as above; assay type: cell-based
[7] = system: Klebsiella pseumoniae; test: as above; assay type: cell-based
[8] = system: Serratia marcescens; test: as above; assay type: cell-based
[9] = system: Enterobacter cloacae; test: as above; assay type: cell-based
[10] = system: Enterobacter aerogenes; test: as above; assay type: cell-based; details: Klebsiella aerogenes
[11] = system: Citrobacter freundii; test: as above; assay type: cell-based
[12] = system: Pseudomonas aeruginosa; test: as above; assay type: cell-based
[13] = system: Staphylococcus aureus; test: as above; assay type: cell-based
[14] = system: Staphylococcus epidermis; test: as above; assay type: cell-based
[15] = system: Streptococcus faecalis; test: as above; assay type: cell-based; details: Enterococcus faecalis
[16] = system: Streptococcus pyogenes; test: as above; assay type: cell-based
[17] = system: Streptococcus pneumoniae; test: as above; assay type: cell-based
[18] = system: Streptococcus viridans; test: as above; assay type: cell-based
[19] = system: Enterobacter cloacae; test: Activity in vivo: survival of intraperitoneally infected mice; details: sc, 96 h; mice infected i.p. with Enterobacter cloacae; s.c. twice, 1 h and 3 h after infection; survival on 4th day; read-out: CD50 (dosage at which 50% of the animals survive)
Outline: (§1)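 Intraperitoneal infection of 5-mouse groups, followed by two subcutaneous saline-formulated doses at 1 h and 3 h. CD50 in mg/kg interpolated from day-4 survival.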

[20] = system: Escherichia coli; test: as above; details: sc, 96 h; mice infected i.p. with Escherichia coli; s.c. twice, 1 h and 3 h after infection; survival on 4th day; read-out: CD50 (dosage at which 50% of the animals survive)
Outline: as §1

[21] = system: Haemophilus influenzae; test: as above; details: sc, 96 h; mice infected i.p. with Haemophilus influenzae; s.c. twice, 1 h and 3 h after infection; survival on 4th day; read-out: CD50 (dosage at which 50% of the animals survive)
Outline: as §1

[22] = system: Serratia marcescens; test: as above; details: sc, 96 h, mice infected i.p. with Serratia marcescens strain 1, s.c. twice, 1 h and 3 h after infection, survival on 4th day, read-out: CD50 (dosage at which 50% of the animals survive)
Outline: as §1

[23] = system: Streptococcus pyogenes; test: as above; details: sc, 96 h; mice infected i.p. with Streptococcus pyogenes; s.c. twice, 1 h and 3 h after infection; survival on 4th day; read-out: CD50 (dosage at which 50% of the animals survive)
Outline: as §1

[24] = system: Pseudomonas aeruginosa; test: as above; details: sc, 96 h; mice infected i.p. with Pseudomonas aeruginosa; s.c. three times, 1 h, 3 h and 5 h after infection; survival on 4th day; read-out: CD50 (dosage at which 50% of the animals survive)
Outline: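 Mice (5/group) infected intraperitoneally, then given compound in physiological saline subcutaneously at 1 and 3 h post-infection (in some cases three times, at 1, 3 and 5 h). Survivors counted on day 4; CD50 (mg/kg), the dose giving 50% survival, interpolated from several dosages.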

[25] = Toxicity, LD50; details: in vivo
[26] = system: Neisseria moningitidis; test: Activity in vivo: survival of intraperitoneally infected mice; details: sc, 96 h; mice infected i.p. with Neisseria moningitidis; s.c. twice, 1 h and 4 h after infection; survival on 4th day; read-out: CD50 (dosage at which 50% of the animals survive)
Procedure: Groups of 5 mice are infected intraperitoneally with an aqueous suspension of various pathogens. The test substance in physiological sodium chloride solution is administered subcutaneously twice, i.e. 1 hour and 3 hours after the infection. The number of surviving animals is determined on the 4th day. Various dosages are administered and that dosage at which 50% of the experimental animals survive (CD50, mg/kg) is determined by interpolation.
**Administered subcutaneously twice: 1 hour and 4 hours after the […]

[27] = Enterobacter aerogenes strain 1
[28] = Enterobacter aerogenes strain 2
[29] = Pseudomonas aeruginosa strain 1
[30] = Pseudomonas aeruginosa strain 2
[31] = Pseudomonas aeruginosa strain 3
[32] = Streptococcus faecalis strain 1
[33] = Streptococcus faecalis strain 2
[34] = Streptococcus pyogenes strain 1, read-out: Minimum inhibitory concentration
[35] = Streptococcus pyogenes strain 2, read-out: Minimum inhibitory concentration

Work on CO/N=C(\C(=O)N[C@@H]1C(=O)N2C(C(=O)O)=C(CSc3nnc(C)s3)CS[C@H]12)c1c[se]c(N)n1 [Product B, (6R, 7R)-7-[2-)2-amino-4-selenazolyl)-2-[(Z)-methoxyimino]-acetamido]-3-[[(5-methyl-1,3,4-thiadiazol-2-yl)thio]methyl]-8-oxo-5-thia-1-azabicyclo[4.2.0]oct-2-ene-2-carboxylic acid sodium salt] yielded an MIC ([1]; Escherichia coli strain 1) of 0.2 µg/mL, an MIC ([1]; Escherichia coli strain 2) of 0.006 µg/mL and an MIC ([1]; Escherichia coli strain 3) of 0.8 µg/mL. For the same compound, the MIC ([1]; Escherichia coli strain 4) was 0.2 µg/mL, the MIC ([1]; Escherichia coli strain 5) was 0.4 µg/mL and the MIC ([2]; Proteus mirabilis strain 1) was 0.19 µg/mL. For the same compound, the MIC ([2]; Proteus mirabilis strain 2) was 0.19 µg/mL, the MIC ([2]; Proteus mirabilis strain 3) was 0.2 µg/mL and the MIC ([2]; Proteus mirabilis strain 4) was 0.4 µg/mL. For the same compound, the MIC ([2]; Proteus mirabilis strain 5) was 0.4 µg/mL, the MIC [3] was 0.05 µg/mL and the MIC [4] was 0.2 µg/mL. For the same compound, the MIC [5] was 0.025 µg/mL, the MIC [6] was 0.78 µg/mL and the MIC ([7]; Klebsiella pseumoniae strain 1) was 0.4 µg/mL. For the same compound, the MIC ([7]; Klebsiella pseumoniae strain 2) was 0.1 µg/mL, the MIC ([7]; Klebsiella pseumoniae strain 3) was 0.2 µg/mL and the MIC ([8]; Serratia marcescens strain 1) was 0.8 µg/mL. For the same compound, the MIC ([8]; Serratia marcescens strain 2) was 1.6 µg/mL, the MIC ([8]; Serratia marcescens strain 3) was 0.2 µg/mL and the MIC ([9]; Enterobacter cloacae strain 1) was > 100 µg/mL. For the same compound, the MIC ([9]; Enterobacter cloacae strain 2) was 1.6 µg/mL, the MIC ([9]; Enterobacter cloacae strain 3) was 50 µg/mL and the MIC [10, 27] was 0.1 µg/mL. For the same compound, the MIC [10, 28] was 0.1 µg/mL, the MIC ([11]; Citrobacter freundii strain 1) was 1.6 µg/mL and the MIC ([11]; Citrobacter freundii strain 2) was 0.2 µg/mL. It also gave an MIC [12, 29] of 50 µg/mL, an MIC [12, 30] of 25 µg/mL and an MIC [12, 31] of 6.3 µg/mL. It also gave an MIC ([13]; Staphylococcus aureus strain 1) of 0.8 µg/mL, an MIC ([13]; Staphylococcus aureus strain 2) of 1.6 µg/mL and an MIC ([13]; Staphylococcus aureus strain 3) of 0.8 µg/mL. It also gave an MIC ([13]; Staphylococcus aureus strain 4) of 1.6 µg/mL, an MIC [14] of 0.8 µg/mL and an MIC [15, 32] of 100 µg/mL. For the same compound, the MIC [15, 33] was 100 µg/mL, the MIC [16, 34] was 0.025 µg/mL and the MIC [16, 35] was ≤ 0.012 µg/mL. The MIC [17] was 0.025 µg/mL, the MIC [18] was 0.8 µg/mL and the ED50 [19] was > 12 mg/kg. For the same compound, the ED50 [20] was 0.006 mg/kg, the ED50 [21] was 0.27 mg/kg and the ED50 [22] was 0.52 mg/kg. The ED50 [23] was 0.05 mg/kg, the ED50 [24] was 134 mg/kg and the LD50 ([25]; po) was > 5000 mg/kg. The LD50 ([25]; sc) was > 4000 mg/kg.

With CO/N=C(\C(=O)N[C@@H]1C(=O)N2C(C(=O)O)=C(CSc3nc(=O)c(O)nn3C)C[S+]([O-])[C@H]12)c1c[se]c(N)n1 (stereo partly drawn) [Product E, (6R, 7R)-7-[2-(2-amino-4-selenazolyl)-2-[(Z)-methoxyimino]-acetamido]-3-[[(2,5-dihydro-6-hydroxy-2-methyl-5-oxo-as-triazin-3-yl)-thio]methyl]-8-oxo-5-thia-1-azabicyclo[4.2.0]oct-2-ene-2-carboxylic acid 5-oxide disodium salt] the MIC ([1]; Escherichia coli strain 1) was 0.1 µg/mL, the MIC ([1]; Escherichia coli strain 2) was 0.025 µg/mL and the MIC ([1]; Escherichia coli strain 3) was 0.8 µg/mL. It also gave an MIC ([1]; Escherichia coli strain 4) of 0.05 µg/mL, an MIC ([1]; Escherichia coli strain 5) of 0.4 µg/mL and an MIC ([2]; Proteus mirabilis strain 3) of 0.05 µg/mL. For the same compound, the MIC ([2]; Proteus mirabilis strain 4) was 0.4 µg/mL, the MIC ([2]; Proteus mirabilis strain 5) was 0.1 µg/mL and the MIC [3] was 0.1 µg/mL. It also gave an MIC [4] of 0.05 µg/mL, an MIC [5] of 0.025 µg/mL and an MIC ([7]; Klebsiella pseumoniae strain 1) of 0.1 µg/mL. For the same compound, the MIC ([7]; Klebsiella pseumoniae strain 2) was 0.05 µg/mL, the MIC ([7]; Klebsiella pseumoniae strain 3) was 0.1 µg/mL and the MIC ([8]; Serratia marcescens strain 1) was 0.8 µg/mL. The MIC ([8]; Serratia marcescens strain 2) was 0.8 µg/mL, the MIC ([8]; Serratia marcescens strain 3) was 0.2 µg/mL and the MIC ([9]; Enterobacter cloacae strain 1) was 1.6 µg/mL. It also gave an MIC ([9]; Enterobacter cloacae strain 2) of 0.2 µg/mL, an MIC ([9]; Enterobacter cloacae strain 3) of 1.6 µg/mL and an MIC [10, 27] of 0.1 µg/mL. For the same compound, the MIC [10, 28] was 0.05 µg/mL, the MIC ([11]; Citrobacter freundii strain 1) was 0.1 µg/mL and the MIC ([11]; Citrobacter freundii strain 2) was 0.1 µg/mL. It also gave an MIC [12, 29] of 100 µg/mL, an MIC [12, 30] of 100 µg/mL and an MIC [12, 31] of 50 µg/mL. For the same compound, the MIC ([13]; Staphylococcus aureus strain 1) was > 12 µg/mL, the MIC ([13]; Staphylococcus aureus strain 2) was > 12 µg/mL and the MIC ([13]; Staphylococcus aureus strain 3) was > 12 µg/mL. For the same compound, the MIC ([13]; Staphylococcus aureus strain 4) was > 12 µg/mL, the MIC [14] was > 12 µg/mL and the MIC [15, 32] was > 12 µg/mL. For the same compound, the MIC [15, 33] was > 12 µg/mL, the MIC [16, 34] was 3.1 µg/mL and the MIC [16, 35] was 0.2 µg/mL. The MIC [17] was 3.1 µg/mL, the MIC [18] was > 12 µg/mL and the ED50 [19] was 0.06 mg/kg. The ED50 [20] was 0.017 mg/kg, the ED50 [21] was 1.8 mg/kg and the ED50 [22] was 0.03 mg/kg. For the same compound, the ED50 [23] was 0.13 mg/kg, the ED50 [24] was 75 mg/kg and the ED50 [26] was < 0.1 mg/kg. The LD50 ([25]; po) was > 5000 mg/kg and the LD50 ([25]; sc) was > 4000 mg/kg.
